What is called EC50 is the concentration needed to bring the measured effect to its halfway point.

The subject of one assay is genotype 1/2 chimeric cell culture derived HCV (HCVcc). Put plainly: Genotype 1/2 chimeric HCVcc assay (nano-luciferase, HCV replication). The class given is cell-based. The conditions noted are these: Hepatitis C virus. Put shortly:
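Huh-7.5 cells (2400/well) pretreated 2 h with serially diluted compound, then infected with nano-luciferase genotype 1a/2a (JFH-1) chimeric HCVcc. At 72 h post infection, nano-luciferase reported replication and cellular ATP reported cytotoxicity; EC50 and CC50 by non-linear regression.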
`N#Cc1cccc(-c2ccc(C(=O)NCCCN3CCC(N4CCCCC4)CC3)cc2)c1` [Compound 1150] returned an EC50 of 100 to 1000 nM.
Still for that read-out and setting: the result for `O=C(NCCCCCCN1CCC(N2CCCCC2)CC1)c1ccc(Oc2ccccc2)cc1` [Compound 1088] reads 100 to 1000 nM.
Still for that read-out and setting: under `O=C(NCCCN1CCC(N2CCCCC2)CC1)c1ccc(-c2cccc(N3CCOCC3)c2)cc1` [Compound 1142] stands 1000 to 10000 nM; under `O=C(NCCCN1CCC(N2CCCCC2)CC1)c1ccc(Oc2ccccc2)cc1` [Compound 1013], 100 to 1000 nM; under `O=C(CCCN1CCC(N2CCCCC2)CC1)Nc1ccc(-c2ccc(C(F)(F)F)cc2)cc1` [Compound 1086], 100 to 1000 nM.
Still for that read-out and setting: under `O=C(NCCCN1CCC(N2CCCCC2)CC1)c1ccc(-c2ccc(C(F)(F)F)cc2)cc1F` [Compound 1153] stands 100 to 1000 nM; under `O=C(NCCCN1CCC(N2CCCCC2)CC1)c1ccc(Oc2ccc(Br)cc2)cc1` [Compound 1034], 1000 to 10000 nM.
In turn, `O=C(NCCCN1CCC(N2CCCCC2)CC1)c1cc(-c2ccc(C(F)(F)F)cc2)cs1` [Compound 1082] had an EC50 of 100 to 1000 nM.
Still for that read-out and setting: under `CC(=O)Nc1ccc(-c2ccc(C(=O)NCCCN3CCC(N4CCCCC4)CC3)cc2)cc1` [Compound 1140] stands above 10000 nM.
On the same count and under the same terms, under `O=C(NCCCN1CCC(N2CCCCC2)CC1)c1ccc(-c2ccccc2C(F)(F)F)cc1` [Compound 1028] stands 100 to 1000 nM; under `O=C(NCCCN1CCC(N2CCCCC2)CC1)c1cc2ccccc2[nH]1` [Compound 1010], 1000 to 10000 nM; under `O=C(NCCCN1CCC(N2CCCCC2)CC1)c1ccc(-c2ccc(CO)cc2)cc1` [Compound 1148], above 10000 nM.
On the same count and under the same terms, under `O=C(NCCCN1CCC(Cc2ccccc2)CC1)c1ccc(Oc2ccccc2)cc1` [Compound 1042] stands 1000 to 10000 nM; under `c1ccc(Oc2ccc(CNCCCN3CCC(N4CCCCC4)CC3)cc2)cc1` [Compound 1046], 100 to 1000 nM; under `O=C(c1ccc(Oc2ccccc2)cc1)N1CCC(CN2CCC(N3CCCCC3)CC2)C1` (centres unmarked) [Compound 1089], 1000 to 10000 nM.
In turn, `O=C(NCCCN1CCN(C(=O)c2ccccc2)CC1)c1ccc(Oc2ccccc2)cc1` [Compound 1039] displayed an EC50 above 10000 nM.
The same measure, in the same setting: the result for `O=C(NCCCN1CCC(N2CCCCC2)CC1)c1ccc(-c2ccccc2)cc1` [Compound 1005] reads 100 to 1000 nM.
With `O=C(NCCCN1CCC(N2CCCCC2)CC1)c1ccc(-c2ccc(S(=O)(=O)N3CCOCC3)cc2)cc1` [Compound 1144], the EC50 was in the range of 1000 to 10000 nM.

The same assay, now with this note: Hepatitis C virus, Huh7.5, 72 h.
As for `CCOC(=O)c1cc(C)ccc1NC(=O)NCc1c(-n2cccc2)sc2c1CCNC2` [Compound 104], the EC50 fell in the range of 1000 to 10000 nM.
Regarding `CCOC(=O)c1c(NC(=O)c2c(-n3cccc3)sc3c2CCN(CC)C3)sc2c1CCCC2` [Compound 23], the EC50 was 1000 to 10000 nM.
The compound `CCOC(=O)c1c(NC(=O)NCc2c(-n3cccc3)sc3c2CCN(Cc2ccccc2)C3)sc2c1CCCC2` [Compound 7] displayed an EC50 below 100 nM.
Same read-out and setting: the result for `COc1sc(NC(=O)NCc2c(C(F)(F)F)sc3c2CCNC3)c(C(=O)OC(C)(C)C)c1C` [Compound 371] reads below 100 nM; that for `CC(C)(C)OC(=O)c1c(NC(=O)NCc2c(-c3ccc(C(F)(F)F)nc3)sc3c2CCNC3)sc2c1CCCC2` [Compound 131], 100 to 1000 nM; that for `CCOC(=O)c1c(NC(=O)NCc2ccc(CN(C)C)cc2)sc2c1CCCC2` [Compound 29], 100 to 1000 nM.
In turn, `Cc1sc(NC(=O)NCc2c(-c3cccc(Cl)c3)sc3c2CCN(CCN(C)C)C3)c(C(=O)OC(C)(C)C)c1C` [Compound 365] gave an EC50 of 100 to 1000 nM.
Same read-out and setting: the result for `CC(C)(C)OC(=O)c1c(NC(=O)NCc2c(-c3cccc(C(F)(F)F)c3)sc3c2CCNC3)sc2c1CCCC2` [Compound 204] reads 100 to 1000 nM; that for `CCN1CCc2c(sc(-n3cccc3)c2CNC(=O)Nc2sc3c(c2C(=O)OC(C)(C)C)CC(C)CC3)C1` (centres unmarked) [Compound 232], below 100 nM; that for `CCOC(=O)c1c(NC(=O)NCc2c(C(F)(F)F)sc3c2CCN(C(=O)[C@@H](N)C(C)C)C3)sc2c1CCCC2` [Compound 345], below 100 nM.
The same measure, in the same setting: the result for `Cc1c(CNC(=O)Nc2sc3c(c2C(=O)OC(C)(C)C)CCCC3)csc1CN(C)C` [Compound 189] reads below 100 nM; that for `CC(C)OC(=O)c1c(NC(=O)NCc2c(Br)sc3c2CCN(C)C3)sc2c1CCCC2` [Compound 172], below 100 nM; that for `CC(C)(C)OC(=O)c1c(NC(=O)NCc2c(-c3ccccc3O)sc3c2CCNC3)sc2c1CCCC2` [Compound 249], 100 to 1000 nM.
Same read-out and setting: the result for `CC(C)(C)OC(=O)c1c(NC(=O)NCc2c(-c3ccnc(F)c3)sc3c2CCNC3)sc2c1CCCC2` [Compound 310] reads below 100 nM; that for `NC(=O)c1c(NC(=O)NCc2c(C(F)(F)F)sc3c2CCNC3)sc2c1CCCC2` [Compound 374], 1000 to 10000 nM.
As for `CC(C)(C)OC(=O)c1c(NC(=O)NCc2c(-c3cccc(F)c3)sc3c2CCNC3)sc2c1CCCC2` [Compound 160], the EC50 was below 100 nM.
Still for that read-out and setting: under `CCN1CCc2c(sc(-n3cccc3)c2CNC(=O)Nc2sc3c(c2C(=O)NCCOCCOCCN)CCCC3)C1` [Compound 89] stands 1000 to 10000 nM.
`CCOC(=O)c1c(NC(=O)NCc2c(-n3cccc3)sc3c2CCN(CC)C3)sc(N2CCOCC2)c1C` [Compound 33] had an EC50 of 100 to 1000 nM.
Same read-out and setting: under `CCOC(=O)c1c(NC(=O)NCc2c(C(F)(F)F)sc3c2CCNC3)sc2c1CC(C)CC2C` (centres unmarked) [Compound 208] stands below 100 nM; under `CC1CCCc2sc(NC(=O)NCc3c(-n4cccc4)sc4c3CCN(C)C4)c(C(=O)OC(C)(C)C)c21` (centres unmarked) [Compound 291], below 100 nM.
Still for that read-out and setting: under `CC(C)OC(=O)c1c(NC(=O)NCc2c(C(F)(F)F)sc3c2CCNC3)sc2c1CCCC2` [Compound 167] stands below 100 nM.
For `COc1sc2c(c1CNC(=O)Nc1sc3c(c1C(=O)OC(C)(C)C)CCCC3)CCNC2` [Compound 126], the EC50 is below 100 nM.
Still for that read-out and setting: the result for `CN1CCc2c(sc(-n3cccc3)c2CNC(=O)Nc2sc3c(c2C(=O)OC(C)(C)C)CCOC3)C1` [Compound 236] reads below 100 nM; that for `CN1CCc2c(sc(-n3cccc3)c2CNC(=O)Nc2sc3c(c2C(=O)OC(C)(C)C)CCC3)C1` [Compound 298], below 100 nM.
Still for that read-out and setting: the result for `CC1CCc2sc(NC(=O)NCc3c(C(F)(F)F)sc4c3CCNC4)c(C(=O)OC(C)(C)C)c2C1` (centres unmarked) [Compound 233] reads below 100 nM; that for `CCOC(=O)c1c(NC(=O)NCc2c(C(F)(F)F)sc3c2CCN(C(=O)C(C)N)C3)sc2c1CCCC2` (centres unmarked) [Compound 315], below 100 nM; that for `CCOC(=O)c1c(NC(=O)NC(=O)c2c(-n3c(C)ccc3C)sc3c2CCN(CC)C3)sc2c1CCCC2` [Compound 49], 1000 to 10000 nM.
Still for that read-out and setting: the result for `CC1CCc2sc(NC(=O)NCc3c(Br)sc4c3CCNC4)c(C(=O)OC(C)(C)C)c2C1` (centres unmarked) [Compound 234] reads below 100 nM; that for `CCOC(=O)c1c(NC(=O)NCc2c(-n3cccc3)sc3c2CCN(CC)C3)sc2c1CCC2` [Compound 57], below 100 nM.
As for `CCN1CCc2c(sc(-n3cccc3)c2CNC(=O)Nc2sc3c(c2C(=O)OC)CCCC3)C1` [Compound 127], the EC50 was below 100 nM.
Still for that read-out and setting: the result for `CCOC(=O)c1c(NC(=O)NCc2c(-n3cccc3)sc3c2CCN(CC)C3)sc2ccccc12` [Compound 34] reads 100 to 1000 nM.
Same read-out and setting: the result for `CCN1CCc2c(sc(-n3cccc3)c2CNC(=O)Nc2sc3c(c2-c2c[nH]cn2)CCCC3)C1` [Compound 95] reads above 10000 nM; that for `CCNC(=O)c1c(NC(=O)NCc2c(-n3cccc3)sc3c2CCNC3)sc2c1CCCC2` [Compound 59], below 100 nM; that for `CCOC(=O)c1c(NC(=O)NCc2c(C(F)(F)F)sc3c2CCN(C(=O)[C@H](C)N)C3)sc2c1CCCC2` [Compound 327], below 100 nM.
`CCN1CCc2c(sc(-n3cccc3)c2CNC(=O)Nc2sc3c(c2C(=O)N(C)C)CCCC3)C1` [Compound 122] showed an EC50 of 100 to 1000 nM.
On the same count and under the same terms, under `CCOC(=O)c1c(NC(=O)NCc2cc(CN(C)C)ccc2F)sc2c1CCCC2` [Compound 108] stands 100 to 1000 nM; under `CC(C)(C)OC(=O)c1c(NC(=O)NCc2csc3c2CCNC3)sc2c1CCCC2` [Compound 124], below 100 nM.
On the same count and under the same terms, the result for `CC1CCc2sc(NC(=O)NCc3c(-n4cccc4)sc4c3CCN(C)C4)c(C(=O)OC(C)(C)C)c2C1` (centres unmarked) [Compound 231] reads below 100 nM; that for `CC(C)(C)OC(=O)c1c(NC(=O)NCc2c(-c3ccc(O)cc3)sc3c2CCNC3)sc2c1CCCC2` [Compound 256], 100 to 1000 nM; that for `CC(C)(C)OC(=O)c1c(NC(=O)NCc2c(C(F)(F)F)sc3c2CCNC3)sc2c1CCCC2` [Compound 117], below 100 nM.
The same measure, in the same setting: under `O=C(NCc1c(C(F)(F)F)sc2c1CCNC2)Nc1sc2c(c1C(=O)OC1CCOC1)CCCC2` (centres unmarked) [Compound 326] stands below 100 nM; under `CC(C)(C)OC(=O)c1c(NC(=O)NCc2c(-c3ccc(Cl)c(Cl)c3)sc3c2CCNC3)sc2c1CCCC2` [Compound 287], 100 to 1000 nM.
Take `CCN1CCc2c(sc(C(F)(F)F)c2CNC(=O)Nc2sc3c(c2C(=O)OC(C)(C)C)CCCC3)C1` [Compound 119]: the EC50 is below 100 nM.
Same read-out and setting: under `COC(=O)c1c(NC(=O)NCc2c(Br)sc3c2CCNC3)sc2c1CCCC2` [Compound 128] stands below 100 nM; under `CC(C)(C)OC(=O)c1c(NC(=O)NCc2c(Br)sc3c2CC[N+](C)(C)C3)sc2c1CCCCC2` [Compound 255], below 100 nM.
On the same count and under the same terms, the result for `CCOC(=O)c1cc(C(C)C)sc1NC(=O)NCc1c(-n2cccc2)sc2c1CCN(CC)C2` [Compound 24] reads 100 to 1000 nM; that for `CCOC(=O)c1c(NC(=O)NCc2csc3c2CCCC3)sc2c1CCCC2` [Compound 35], below 100 nM.
For `CCOC(=O)c1c(NC(=O)NCc2c(Br)sc3c2CCNC3)sc2c1CCCC2` [Compound 81], the EC50 was below 100 nM.
`CCc1sc2c(c1CNC(=O)Nc1sc3c(c1C(=O)OC(C)(C)C)CCOC3)CCNC2` [Compound 333] showed a concentration for a half-maximal effect (EC50) below 100 nM.
Same read-out and setting: under `CN(C)CCN1CCc2c(sc(-c3cccc(Cl)c3)c2CNC(=O)Nc2sc3c(c2C(=O)OC(C)(C)C)CCCC3)C1` [Compound 358] stands below 100 nM.

(Values after patent US9809602B2, “Compounds for treating viral infections” (INSTITUT PASTEUR KOREA, priority 2014, dated 2017).)
